Results published in patent publication US20220288110A1, “DRUG TREATMENT AND BIOMARKER PANEL TARGETED TO DISEASES DUE TO MULT[…] OF […]” (priority 2021, published 2022).
Where “and” joins values, the source holds several entries; their conditions need not be identical. Equal values may be shown once.

System: Severe Acute Respiratory Syndrome-Associated Coronavirus (SARS-CoV-1) Urbani strain
Set-up: species or system BALB/C mice
Details: in vivo

polyinosinic: polycytidylic acid
relative efficacy in reducing viral load in mouse lung (in words): lower viral titers at the 3-day mark
order of efficacy by percent reduction in viral load (mouse): H>G>F>A>D>B=C>I>J>E
virtual linear slope of viral reduction beyond 5 days post exposure: day mark at which it converged (mouse): 7 days
Lung virus titer (mouse, ip, 10 mg/kg/day): 7.2 CC ID/50 (Log 10) and 7.0 CC ID/50 (Log 10) and 6.5 CC ID/50 (Log 10) and 6.0 CC ID/50 (Log 10) and 6.2 CC ID/50 (Log 10)
percent reduction in viral load (mouse, ip, 10 mg/kg/day): 11.8%
